For data set [1], the target named is T1, truncated hGlyT2 (start at Met-154, lacking the first 153 amino acids) (Homo sapiens, UniProt Q9Y345, N188D/Q362L/S155G/T582S/V431A).
T1 sequence (Q9Y345 154-797 S155G/N188D/Q362L/V431A/T582S): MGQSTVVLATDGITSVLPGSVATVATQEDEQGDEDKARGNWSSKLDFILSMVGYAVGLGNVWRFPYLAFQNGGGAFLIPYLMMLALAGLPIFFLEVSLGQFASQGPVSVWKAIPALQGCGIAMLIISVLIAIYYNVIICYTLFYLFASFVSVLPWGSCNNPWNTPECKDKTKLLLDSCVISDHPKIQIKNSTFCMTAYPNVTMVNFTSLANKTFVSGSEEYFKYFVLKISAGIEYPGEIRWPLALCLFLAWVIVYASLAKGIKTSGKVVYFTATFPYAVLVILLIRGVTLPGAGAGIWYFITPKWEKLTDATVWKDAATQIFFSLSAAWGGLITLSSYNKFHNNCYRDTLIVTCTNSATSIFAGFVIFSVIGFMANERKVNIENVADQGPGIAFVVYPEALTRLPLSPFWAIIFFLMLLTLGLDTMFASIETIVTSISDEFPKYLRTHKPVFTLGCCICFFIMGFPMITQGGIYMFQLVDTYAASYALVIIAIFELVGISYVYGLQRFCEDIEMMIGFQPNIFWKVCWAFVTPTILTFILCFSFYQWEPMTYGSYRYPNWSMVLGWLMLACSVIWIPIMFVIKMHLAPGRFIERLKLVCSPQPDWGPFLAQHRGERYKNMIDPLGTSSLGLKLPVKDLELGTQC
The note with it: truncated hGlyT2, COS-7 cells.

Data set [2] addresses T2, hGlyT2 transporter (full-length) (Homo sapiens, UniProt Q9Y345, G24S/N188D/Q362L/R74W/S155G/T582S/V431A).
T2 sequence (Q9Y345 1-797 G24S/R74W/S155G/N188D/Q362L/V431A/T582S): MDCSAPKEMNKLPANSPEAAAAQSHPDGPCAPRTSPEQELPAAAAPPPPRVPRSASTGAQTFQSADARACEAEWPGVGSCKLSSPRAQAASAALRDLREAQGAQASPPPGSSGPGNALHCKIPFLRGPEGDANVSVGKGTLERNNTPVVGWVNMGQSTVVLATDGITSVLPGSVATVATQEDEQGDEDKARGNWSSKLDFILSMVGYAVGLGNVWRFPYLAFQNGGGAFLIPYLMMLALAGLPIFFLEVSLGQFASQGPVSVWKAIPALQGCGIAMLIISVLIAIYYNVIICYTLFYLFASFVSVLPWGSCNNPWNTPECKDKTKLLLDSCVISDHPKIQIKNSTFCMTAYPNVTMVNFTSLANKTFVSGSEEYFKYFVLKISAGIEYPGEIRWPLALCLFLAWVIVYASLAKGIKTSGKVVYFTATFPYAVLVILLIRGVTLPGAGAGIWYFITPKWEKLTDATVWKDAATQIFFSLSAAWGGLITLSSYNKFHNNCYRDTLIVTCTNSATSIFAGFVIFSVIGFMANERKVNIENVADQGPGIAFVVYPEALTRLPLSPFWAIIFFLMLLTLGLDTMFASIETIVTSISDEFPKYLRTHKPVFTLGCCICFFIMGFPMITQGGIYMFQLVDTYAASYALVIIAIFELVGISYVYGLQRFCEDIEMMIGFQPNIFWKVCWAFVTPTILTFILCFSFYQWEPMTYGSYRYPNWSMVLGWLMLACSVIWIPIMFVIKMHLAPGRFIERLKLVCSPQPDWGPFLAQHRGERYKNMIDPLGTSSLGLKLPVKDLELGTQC
The note with it: full-length hGlyT2, COS-7 cells.

Another data set concerns the target T3, rat GlyT2 (Rattus norvegicus, UniProt P58295).
T3 sequence (P58295 1-799): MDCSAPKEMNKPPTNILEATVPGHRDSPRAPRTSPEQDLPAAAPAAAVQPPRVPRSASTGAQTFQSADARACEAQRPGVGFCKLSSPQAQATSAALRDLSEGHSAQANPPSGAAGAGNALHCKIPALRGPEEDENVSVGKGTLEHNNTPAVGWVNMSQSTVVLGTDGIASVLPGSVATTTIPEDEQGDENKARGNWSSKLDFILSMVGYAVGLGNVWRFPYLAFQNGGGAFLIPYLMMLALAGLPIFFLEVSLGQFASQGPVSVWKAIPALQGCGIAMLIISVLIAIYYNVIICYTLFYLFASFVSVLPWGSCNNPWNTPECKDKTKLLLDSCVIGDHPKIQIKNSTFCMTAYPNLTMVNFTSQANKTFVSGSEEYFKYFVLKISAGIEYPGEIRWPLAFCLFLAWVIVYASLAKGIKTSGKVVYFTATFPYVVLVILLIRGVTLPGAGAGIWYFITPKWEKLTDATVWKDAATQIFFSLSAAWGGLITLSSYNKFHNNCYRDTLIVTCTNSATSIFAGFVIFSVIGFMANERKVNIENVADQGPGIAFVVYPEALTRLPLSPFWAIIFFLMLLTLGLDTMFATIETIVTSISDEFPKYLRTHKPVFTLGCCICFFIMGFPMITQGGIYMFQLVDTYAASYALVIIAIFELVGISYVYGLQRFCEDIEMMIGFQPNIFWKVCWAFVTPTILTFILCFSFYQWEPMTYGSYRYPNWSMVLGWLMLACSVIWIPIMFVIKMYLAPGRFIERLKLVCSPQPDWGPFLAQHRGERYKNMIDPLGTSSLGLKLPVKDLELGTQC
The note with it: Liu et al. 1993, cited from earlier work.

The next data set concerns the target T4, GlyT1 (Homo sapiens, UniProt P48067).
T4 sequence (P48067 1-706): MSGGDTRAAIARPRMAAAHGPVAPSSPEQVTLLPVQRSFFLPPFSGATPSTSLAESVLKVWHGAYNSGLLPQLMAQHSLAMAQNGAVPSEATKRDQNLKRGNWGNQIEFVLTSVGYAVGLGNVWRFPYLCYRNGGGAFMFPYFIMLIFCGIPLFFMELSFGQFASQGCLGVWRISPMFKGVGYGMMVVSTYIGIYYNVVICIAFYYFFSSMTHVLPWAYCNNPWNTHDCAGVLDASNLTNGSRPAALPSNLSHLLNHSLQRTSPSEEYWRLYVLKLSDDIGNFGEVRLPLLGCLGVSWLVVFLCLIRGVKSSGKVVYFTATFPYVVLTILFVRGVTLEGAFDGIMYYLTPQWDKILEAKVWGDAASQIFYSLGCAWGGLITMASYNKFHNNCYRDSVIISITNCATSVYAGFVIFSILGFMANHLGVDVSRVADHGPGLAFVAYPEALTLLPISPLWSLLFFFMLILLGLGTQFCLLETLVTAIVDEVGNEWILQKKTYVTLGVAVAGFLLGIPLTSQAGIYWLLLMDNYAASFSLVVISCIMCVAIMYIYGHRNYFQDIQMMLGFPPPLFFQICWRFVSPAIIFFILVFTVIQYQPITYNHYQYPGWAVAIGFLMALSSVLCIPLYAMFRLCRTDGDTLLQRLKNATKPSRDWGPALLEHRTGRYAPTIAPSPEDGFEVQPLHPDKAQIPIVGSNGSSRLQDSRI
The note with it: sarcosine concentration exceeds 200 μM; cited from earlier work.

Substrate in data set [3]: NCC(=O)O
Nature of the data set: cells, lysate or membranes. The note with it: pH 7.4.

Setting [4] is: 1 mM sarcosine, 15 min pretreatment.

The Km is the concentration of substrate that gives half-maximal velocity. Regarding `NCC(=O)O` [glycine], the “Vmax of glycine uptake” value in data set [1] is given as 67±3 pmol glycine/mg protein/min. In data set [2], the “Vmax of glycine uptake (Eadie-Hofstee)” value is reported as 190±3 pmol glycine/mg protein/min. For the same molecule, on rat GlyT2 (read-out: Km reported for rat GlyT2), the Km is 13 µM.

Take `CNCC(=O)O` [sarcosine]: at GlyT1, the “inhibition of GlyT1-mediated glycine uptake” value was “almost completely inhibited”. Further, the “reduction of glycine uptake” value in data set [1] (setting [4]) and in data set [2] (setting [4]) was “less than 15%” in each case. Also, the “effect of increasing concentrations of sarcosine on glycine uptake (FIG. 5)” value in data set [1] and in data set [2] was “insensitive to sarcosine inhibition” in each case. Besides, the “inhibition of rat GlyT2-mediated glycine uptake” value at rat GlyT2 (sarcosine 1 mM) is listed as 10-20%.

B1: hGlyT2 transporter (full-length) (Homo sapiens; G24S/N188D/Q362L/R74W/S155G/T582S/V431A) (protein)
chain: MDCSAPKEMNKLPANSPEAAAAQSHPDGPCAPRTSPEQELPAAAAPPPPRVPRSASTGAQTFQSADARACEAEWPGVGSCKLSSPRAQAASAALRDLREAQGAQASPPPGSSGPGNALHCKIPFLRGPEGDANVSVGKGTLERNNTPVVGWVNMGQSTVVLATDGITSVLPGSVATVATQEDEQGDEDKARGNWSSKLDFILSMVGYAVGLGNVWRFPYLAFQNGGGAFLIPYLMMLALAGLPIFFLEVSLGQFASQGPVSVWKAIPALQGCGIAMLIISVLIAIYYNVIICYTLFYLFASFVSVLPWGSCNNPWNTPECKDKTKLLLDSCVISDHPKIQIKNSTFCMTAYPNVTMVNFTSLANKTFVSGSEEYFKYFVLKISAGIEYPGEIRWPLALCLFLAWVIVYASLAKGIKTSGKVVYFTATFPYAVLVILLIRGVTLPGAGAGIWYFITPKWEKLTDATVWKDAATQIFFSLSAAWGGLITLSSYNKFHNNCYRDTLIVTCTNSATSIFAGFVIFSVIGFMANERKVNIENVADQGPGIAFVVYPEALTRLPLSPFWAIIFFLMLLTLGLDTMFASIETIVTSISDEFPKYLRTHKPVFTLGCCICFFIMGFPMITQGGIYMFQLVDTYAASYALVIIAIFELVGISYVYGLQRFCEDIEMMIGFQPNIFWKVCWAFVTPTILTFILCFSFYQWEPMTYGSYRYPNWSMVLGWLMLACSVIWIPIMFVIKMHLAPGRFIERLKLVCSPQPDWGPFLAQHRGERYKNMIDPLGTSSLGLKLPVKDLELGTQC
On to B1, for which the Km in data set [3] (other: full-length hGlyT2, COS-7 cells, 15 min at 37° C.) is 10 ± 0.4 µM.

B2: truncated hGlyT2 (start at Met-154, lacking the first 153 amino acids) (Homo sapiens; N188D/Q362L/S155G/T582S/V431A) (protein)
chain: MGQSTVVLATDGITSVLPGSVATVATQEDEQGDEDKARGNWSSKLDFILSMVGYAVGLGNVWRFPYLAFQNGGGAFLIPYLMMLALAGLPIFFLEVSLGQFASQGPVSVWKAIPALQGCGIAMLIISVLIAIYYNVIICYTLFYLFASFVSVLPWGSCNNPWNTPECKDKTKLLLDSCVISDHPKIQIKNSTFCMTAYPNVTMVNFTSLANKTFVSGSEEYFKYFVLKISAGIEYPGEIRWPLALCLFLAWVIVYASLAKGIKTSGKVVYFTATFPYAVLVILLIRGVTLPGAGAGIWYFITPKWEKLTDATVWKDAATQIFFSLSAAWGGLITLSSYNKFHNNCYRDTLIVTCTNSATSIFAGFVIFSVIGFMANERKVNIENVADQGPGIAFVVYPEALTRLPLSPFWAIIFFLMLLTLGLDTMFASIETIVTSISDEFPKYLRTHKPVFTLGCCICFFIMGFPMITQGGIYMFQLVDTYAASYALVIIAIFELVGISYVYGLQRFCEDIEMMIGFQPNIFWKVCWAFVTPTILTFILCFSFYQWEPMTYGSYRYPNWSMVLGWLMLACSVIWIPIMFVIKMHLAPGRFIERLKLVCSPQPDWGPFLAQHRGERYKNMIDPLGTSSLGLKLPVKDLELGTQC
Regarding B2, in data set [3] (other: truncated hGlyT2, COS-7 cells, 37.0 °C), the Km was determined as 9 ± 1 µM.

Values taken from patent US6416975B1 (Gliatech, Inc., priority 1998, dated 2002).
